Data reported in patent US10064911B2, “Peptides for treating cancer” (The Board of Trustees of the University of Illinois, priority 2015, dated 2018).
“Also recorded” adds a separate entry of the source.

What was measured:
HMVECs = assay: Thrombin-induced Ca2+ release from ER stores in HMVECs (Fura 2-AM); assay type: cell-based; settings: pre-treatment with 5 μg/ml for 20 min prior to thrombin stimulation
Experimental: (FIG. 4A) HMVECs pre-treated with AP-attached IP3R3 peptide or control (AP) peptide were loaded with Fura 2-AM and 340/380 ratio was calculated after stimulation of cells with thrombin (50 nM) in the absence and in the presence of extracellular Ca^2+. Arrow, time of thrombin addition. […] The increase is normalized to control non-treated cells from the same experiment (n=4).
[…] contains EB binding consensus motif, Ser/Thr-x-Ile-Pro (SxIP) (SEQ ID NO: 5). […] The role of the interaction between EB3 and IP3R3 was recently described by Geyer et al., Cell Rep 12(1):79-89; 2015. […] The effects of IP3R3 peptide and taxol were compared in regulating Ca^2+ release.

[1] = test system: MDA-MB-231 human breast cancer cells; assay: Triple negative breast cancer xenograft: tumor growth and neovascularization; assay type: in vivo, Nude mice; settings: for number of vessels outside of the tumor: H&E staining
Excerpt: FIG. 8A plots tumor growth curve in xenograft model; mean is shown; n=8 mice per group. FIG. 8B plots the number of vessels per area counted outside of the tumor; n=25 fields/mouse; N=5 mice; *, p<0.05; **, p<0.01.
The effect of EBIN on growth rate of triple negative (estrogen receptor [ER], progesterone receptor [PR] and human epidermal growth factor receptor-2 [HER-2] are not expressed in this cell line) human breast cancer cells using a xenograft model was investigated. Nude mice (n=8 mice per group) were injected with 3×10^6 MDA-MB-231 human breast cancer cells into the upper left mammary fat pad. All mice developed the tumor by day 13. At that time point, mice were randomized and divided by 5 groups and each group received the treatment. Study was terminated at day 24 when the tumor reached 2000 mm^3 in size. The treatment with control peptide and EBIN was performed daily for 7 days. EBIN and control peptide were delivered via tail vein injection. Control peptide was injected at 5 μM/kg body weight. EBIN was injected at 1 μM/kg and 5 μM/kg body weight.
Treatment with taxol was performed via intraperitoneal injection at 10 μM/kg body weight for 4 days. Tumor size was measured 3 times a week.
To correlate the effect of EBIN treatment with tumor neovascularization, tumor tissue was collected, fixed and stained with hematoxylin and eosin (H&E). Number of […] outside of the tumor mass was scored and normalized per area.

[2] = test system: blood vessels ingrowth into matrigel plugs; assay: In vivo ectopic matrigel plug angiogenesis; parameters: species or system mice; settings: for number of vessels / vessel formation in matrigel plugs: matrigel with heparin and VEGF, plugs removed at 96 hours, HE staining
Experimental: (§1) Group 1 was treated with control peptide and group 3 was treated with Myr-EBIN at 0, 36 and 60 hrs; group 2 received only 36 and 60 hour treatment. […] Scale bar, 200 μm.
EBIN effect on blood vessels in growth in an in vivo model of ectopic matrige angiogenesis was also investigated. Blood vessel in growth matrigel was pre-mixed with heparin and VEGF but not with endothelial cells, and i.p. injected into low abdomen of mice. There were two 400 μL plugs per mouse. […] These vessels were functional and perfused with blood that is apparent from the presence of red blood cells inside the vessels. In addition, mice were treated with EBIN at the time of matrigel injection (FIG. 7C,2; Group 2) or 36 hrs after matrigel (FIG. 7C,3; Group 3). Matrigel plugs were removed at 96 hours, fixed and stained with HE to assess the vessel formation.

[3] = Acute toxicity testing in vivo (eye); parameters: species or system C57BL/6 mice
Experimental: Representative images of Fundus Fluorescein Angiography F and corresponding Optical Coherence Tomography (FIG. 12B) at day 8 of intravitreal treatment with EBIN (1 μg/eye).
A short term study is designed to assess safety of administration in vivo. C57BL/6 mice (n=10, 5 mice per group/treatment route) are randomized and divided into two groups. The first group is treated with EBIN in the right eye via eye drops delivered twice daily, 5 μg per eye (10 μl) and, the second group is treated with intravitreal injection of EBIN in the right eye at the maximum dose, 1 μg per eye (2 μl) on day one. The intravitreal injection is performed under ketamine/xylazine (100 mg/5 mg/kg) anesthesia. Both groups are monitored daily for general health including body weight as well as any eye abnormalities including opacity, exophthalmia enophthalmia, conjunctivitis, abnormal secretions or crusting, and corneal ulcers for a period of 8 days. Animals are subsequently subjected to fluorescein angiography and OCT imaging.

endothelial cell = assay type: cell-based; settings: data not shown
[4] = test system: human VEGF-induced vascular leakage; assay: VEGF-induced subcutaneous vascular leakage of albumin-bound Evans Blue; assay type: in vivo, Balb/cJ mice; settings: pretreated 1 μM/kg; human VEGF 50 ng/kg intradermal; measured at 620 nm
Experimental: A study investigating whether injection of the EBIN prevented vascular endothelial growth factor (VEGF)-induced microvascular leakage was carried out. Balb/cJ mice were pretreated with the EBIN peptide (1 μM/kg) or a control peptide (2T→A mutation) and then human VEGF (50 ng/kg body weights) was intradermally injected to induce vascular leakage of albumin-bound Evans Blue (see FIG. 6A). In addition, the formamide-extracted Evans Blue was quantified spectrophotometically at 620 nm and corrected for hemoglobin (740 nm) and skin weight (see FIG. 6B).

[5] = test system: human umbilical vein endothelial cells; assay: In vitro tubulogenesis in 2D matrigel model; assay type: cell-based; settings: 1 μM; assessed 16 hours after plating on matrigel
Experimental: as §1
The effect of EBIN on in vitro tubulogenesis and in vivo angiogenesis was investigated using matrigel models. A single cell suspension of human umbilical vein endothelial cells was plated above matrigel-coated wells in the presence of 1 μM EBIN or control peptide; tube formation was assessed 16 hours later.

[6] = test system: laser-induced choroidal neovascularization (CNV); settings: 1 μg/eye single intravitreal injection; day 15; versus control peptide
Experimental: Quantification of the area of fluorescein leakage (FIG. 11D) and lesion (FIG. 11E) using images shown in (FIG. 11A) and (FIG. 11C); n=6-9 mice per group; **, p<0.01. […] Comparison between groups were performed using ANOVA.
To assess the barrier-protective and anti-angiogenic activities of EBIN, EBIN is tested in murine models of CNV. In addition to treatment with EBIN, LEAF™ antibody (a monoclonal rat antibody against mouse VEGF-A) and control peptide (Myr-FAEIPTI), were used as positive and negative experimental controls, respectfully.
Mice were anesthetized with a mixture of ketamine/xylazine (100 mg/5 mg/kg IP) and their pupils were dilated with a topical application of Cyclomydril (Alcon Laboratories, Fort Worth, Tex.). The fundus was viewed with an imaging camera, and laser photocoagulation was induced using the image-guided laser system (Micron IV, Phoenix Research Laboratories, Pleasanton, Calif.). Four laser burns at equal distance from the optic nerve were induced one by one in right eye by a green Argon laser pulse with a wavelength of 532 nm, a fixed diameter of 50 μm, duration of 70 ms, and power levels from 210-250 mW. Appearance of bubble or a small subretinal hemorrhage (diameter <1 mm) at the laser spot serves to indicate rupture of the Bruch's membrane and as confirmation of laser-induced CNV. This procedure was performed only on the right eye of each mouse. […]

| Compound | release of Ca2+ from ER in response to thrombin (HMVECs) | number of vessels outside of the tumor ([1]; 10 μM/kg intraperitoneal for 4 days) | tumor growth ([1]; intraperitoneal injection at 10 μM/kg body weight for 4 days) | number of vessels / vessel formation in matrigel plugs [2] | toxicity ([3]; eye drops 5 μg per eye twice daily or intravitreal 1 μg per eye, 8 days, with or without CNV induction) | crystals/precipitates in the eye ([3]; intravitreal 1 μg/eye, day 8) | changes in retinal vasculature, retinal pigment epithelium, choroid, sclera ([3]; intravitreal 1 μg/eye, day 8, angiography and OCT) | effect of post-treatment versus treatment on vessel ingrowth ([2]; treatment started 36 hrs after matrigel versus at the time of matrigel injection) | endothelial cell death or cell cycle arrest (endothelial cell) | subcutaneous vascular leak of albumin-bound Evans Blue [4] | tube formation (tubulogenesis) [5] | vascular leakage (area of fluorescein leakage) [6] | number of vessels outside of the tumor ([1]; 5 μM/kg, tail vein) | tumor growth rate ([1]; tail vein injection, 1 μM/kg body weight daily for 7 days) | tumor size ([1]; tail vein injection, 5 μM/kg body weight daily for 7 days) |
| --- | --- | --- | --- | --- | --- | --- | --- | --- | --- | --- | --- | --- | --- | --- | --- |
| CC(=O)O[C@H]1C(=O)[C@@]2(C)[C@H]([C@H](OC(=O)c3ccccc3)[C@]3(O)C[C@H](OC(=O)[C@H](O)[C@@H](NC(=O)c4ccccc4)c4ccccc4)C(C)=C1C3(C)C)[C@]1(OC(C)=O)CO[C@@H]1C[C@@H]2O [taxol, reference compound] | inhibits release of Ca^2+ from ER to the same extent as IP3R3 peptide | significantly reduced | significant delay in the tumor growth | – | – | – | – | – | – | – | – | – | – | – | – |
| FAEIPTI [reference compound] | – | – | – | newly formed blood vessels grew into the matrigel | – | – | – | – | – | – | – | – | – | – | – |
| FTEIPTI [EBIN] | – | – | – | markedly reduced | No toxicity was observed | forms small crystals/precipitates inside of various humor | no visible changes | post-treatment was as effective as a treatment | did not induce endothelial cell death or cell cycle arrest | significantly inhibited subcutaneous vascular leak | significantly abolished formation of tubes; also recorded: inhibited tubulogenesis | significantly reduced | significantly reduced; also recorded: superior effect as compared to taxol | developed the tumor at the same rate as untreated mice | reduction in the tumor size; also recorded: significantly smaller as compared to control untreated group |
